{"source": "patent US20210134398A1", "about": "“Combinatorial Chemistry Computational System and Enhanced Selection Method” (Southern Methodist University, priority 2019, published 2021)", "key": {"[1]": {"biological_target": "T1, P-gp-catalyzed transport of calcein AM in DU145TXR cells (Homo sapiens, UniProt P08183)", "T1 construct": "DU145 human prostate cancer cells^52 as well as the multidrug resistant sub-line, DU145TXR; endogenous in cells; host or cells: DU145TXR (paclitaxel-selected sub-line of human DU145 prostate cancer cells)", "assay": "Calcein AM accumulation assay", "assay_type": "cell-based", "details": "after 6-hour pre-incubation, compared to parental 29", "protocol": "Accumulation and cellular retention of calcein AM in P-gp overexpressing prostate cancer cells upon incubation with Group 1 SMU-29 variants. Calcein AM accumulation assays have been used by us previously to evaluate P-gp-substrate accumulation in real time in the presence or absence of P-gp inhibitors^28. For these assays, P-gp overexpressing DU145TXR cells were incubated with the respective inhibitors in the presence of the P-gp substrate, calcein AM. Inhibition of P-gp leads to cellular accumulation of calcein AM and to cleavage of its acetoxymethyl ester groups, resulting in the generation of the highly fluorescent compound, calcein. The anionic calcein is not a substrate of P-gp and remains in the cells. In these assays, the relative fluorescence of cellular calcein was measured over time and the results of these assays are shown in FIG. 13A. […]\nCalcein AM assay. To assess inhibition of P-gp-catalyzed transport of the P-gp pump substrate, calcein AM, DU145TXR cells were seeded in 96 wells plates and allowed to grow in complete medium until confluency was reached. Medium was removed, and cells were treated […] P-gp inhibitory compounds and 1 μg/mL calcein AM (Life Technologies, OR) and diluted into phenol red free RPMI 1640 media. To study the effect of pre-incubation of compounds, cells were treated with just P-gp inhibitory compounds and incubated at 37° C. for six hours before adding calcein AM. Fluorescence excitation at 485 nm with a 20 nm gate and at emission at 535 nm with a 20 nm gate was measured using a BioTek Cytation 5 imaging multi-mode reader (Bio-Tek, Winooski, Vt.) over 60 minutes in 20 minute intervals. DMSO was used as vehicle. Results were plotted as the mean with standard deviation (SD) of six replicates per concentration and are representative of at least two independent experiments."}, "[2]": {"biological_target": "T2, Cysteineless Mouse MDR3 P-glycoprotein (Mus musculus, UniProt P21447, C1070A/C1121A/C1223A/C133A/C427A/C638A/C669A/C713A/C952A)", "T2 construct": "made in house; host or cells: Pichia pastoris", "T2 sequence (P21447 whole entry C133A/C427A/C638A/C669A/C713A/C952A/C1070A/C1121A/C1223A)": "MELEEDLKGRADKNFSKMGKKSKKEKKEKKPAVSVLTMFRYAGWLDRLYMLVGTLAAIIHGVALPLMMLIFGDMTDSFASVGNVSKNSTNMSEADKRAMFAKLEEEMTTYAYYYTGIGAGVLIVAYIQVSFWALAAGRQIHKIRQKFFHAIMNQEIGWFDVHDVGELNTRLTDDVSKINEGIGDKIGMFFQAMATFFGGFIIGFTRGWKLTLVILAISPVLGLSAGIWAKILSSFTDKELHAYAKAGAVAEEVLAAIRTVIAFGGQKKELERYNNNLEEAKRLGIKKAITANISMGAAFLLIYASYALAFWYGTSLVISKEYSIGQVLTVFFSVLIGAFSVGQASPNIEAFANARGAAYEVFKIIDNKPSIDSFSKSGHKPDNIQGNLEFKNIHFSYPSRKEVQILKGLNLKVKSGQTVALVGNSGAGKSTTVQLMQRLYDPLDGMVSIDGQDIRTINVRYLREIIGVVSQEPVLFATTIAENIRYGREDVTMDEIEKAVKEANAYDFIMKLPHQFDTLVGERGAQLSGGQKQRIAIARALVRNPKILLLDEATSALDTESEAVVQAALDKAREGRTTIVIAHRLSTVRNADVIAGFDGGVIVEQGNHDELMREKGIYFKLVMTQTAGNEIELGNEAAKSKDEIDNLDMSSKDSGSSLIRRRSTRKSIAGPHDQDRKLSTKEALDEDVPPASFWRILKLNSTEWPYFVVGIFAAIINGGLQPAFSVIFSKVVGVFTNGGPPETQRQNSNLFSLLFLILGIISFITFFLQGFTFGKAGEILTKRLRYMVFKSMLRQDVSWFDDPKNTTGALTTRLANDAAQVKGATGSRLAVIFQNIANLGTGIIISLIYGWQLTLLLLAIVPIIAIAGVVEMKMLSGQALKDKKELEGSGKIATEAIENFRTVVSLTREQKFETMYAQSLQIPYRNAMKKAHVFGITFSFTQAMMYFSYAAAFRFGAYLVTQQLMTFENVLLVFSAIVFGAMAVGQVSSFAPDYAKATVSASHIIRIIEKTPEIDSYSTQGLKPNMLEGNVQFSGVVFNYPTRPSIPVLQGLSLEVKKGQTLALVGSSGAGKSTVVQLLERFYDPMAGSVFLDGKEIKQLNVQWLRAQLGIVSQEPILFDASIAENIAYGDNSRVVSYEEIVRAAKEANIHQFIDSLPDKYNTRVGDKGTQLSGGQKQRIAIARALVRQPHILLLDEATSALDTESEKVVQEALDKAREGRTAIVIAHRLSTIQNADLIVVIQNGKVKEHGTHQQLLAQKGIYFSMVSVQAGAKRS", "assay": "ATPase activity assay (basal and verapamil-stimulated), purified P-gp in mixed micelles", "assay_type": "biochemical", "protocol": "Evaluation of mode of inhibition of P-glycoprotein by Group 1 and Group 2 variants of compound 29. To assess the mode of inhibition of P-gp by the novel variants of P-gp inhibitor 29, ATP hydrolysis by P-gp was evaluated in the presence or absence of the variants. […] Murine P-gp (MDR3) expressed in Pichia pastoris that had all naturally occurring cysteines replaced with alanine, was used^45, 46. It is widely assumed that the ATP hydrolytic rate of P-gp is stimulated in the presence of transport substrates when compared to ATP hydrolysis in the absence of transport substrates. Assays comparing these rates can therefore be useful not only in identifying inhibitors of P-gp catalyzed ATP hydrolysis, but also to potentially infer whether a compound might be a transport substrate if basal ATPase rates are stimulated by the addition of a compound.\nP-glycoprotein Purification. Cysteine-less MDR3 and the human normal MDR1 P-glycoprotein was recombinantly expressed in the yeast Pichia pastoris essentially as in^45, 46 and used for assaying ATP hydrolysis and ATP binding to the protein in the presence of the 29-variants. Purification of the protein was performed as described^49 with small modifications resulting in highly enriched P-gp in mixed micelles containing dodecyl maltoside (DDM) and lysophosphatidyl choline^26.\nATPase Activity Assays. ATP hydrolysis activity was measured using a coupled enzyme assay^72 as modified in reference^26."}, "[3]": {"biological_target": "T3, cysteineless mouse P-glycoprotein (Mus musculus, UniProt P21447, C1070A/C1121A/C1223A/C133A/C427A/C638A/C669A/C713A/C952A)", "T3 construct": "made in house; host or cells: Pichia pastoris", "T3 sequence (P21447 whole entry C133A/C427A/C638A/C669A/C713A/C952A/C1070A/C1121A/C1223A)": "as above", "assay": "SL-ATP (spin-labeled ATP analog) binding titration by ESR", "protocol": "Effects of 29 variants on binding of an ATP-analog to purified P-glycoprotein. ATP binding in the presence of the 29 variants was assessed in titration assays using a spin-labeled analog of ATP, 2′,3′-SL-ATP (2′,3′-(2,2,5,5,-tetramethyl-3-pyrroline-1-oxyl-3-carboxylic acid ester) ATP; (2′,3′ indicates a rapid equilibrium of the ester bond between the C2′ and C3′ of the ribose moiety))^48-50, and electron spin resonance spectroscopy as described in^26. Due to the lower stability of the human P-glycoprotein in the extended times needed for these experiments, the cysteineless mouse protein was used here. The goal was to assess whether binding of the 29 variants to P-gp affected nucleotide binding to the protein.\nESR Measurements. ESR measurements were as described in^26. The amount of protein-bound spin-labeled (SL) adenine nucleotide was determined as the difference between the known total concentration of SL-ATP (2′,3′-(2,2,5,5,-tetramethyl-3-pyrroline-1-oxyl-3-carboxylic acid ester) —ATP^48) added and the free spin-labeled nucleotide (SL-ANP) observed in the experiment. Hyperbolic curve fitting of the results was performed using GraphPad Prism 7 to determine maximum binding and apparent affinity for the spin-labeled nucleotide. The equation used for the fitting the curves was […], where P1 corresponds to the maximum binding of SL-ANP (moles of SL-ANP bound per mole P-gp), and P2 equals the apparent dissociation constant for SL-ANP. To quantify the amount of free SL-ANP, standard curves were established where the signal amplitude of the high field signal of the ESR spectra of free SL-ANP in the absence of protein was correlated to the concentration of SL-ANP added. All ESR measurements were performed using a Bruker EMX 6/1 ESR spectrophotometer operating in X-band mode and equipped with a high sensitivity cavity. Spectra were acquired at a microwave frequency of 9.33 GHz, microwave power of 12.63 mW, 100 kHz modulation frequency and a resolution of 1024 points. The centerfield of the scan was at 3325 G and an area of 100 G was scanned. The peak to peak modulation amplitude was 1G and the time constant was set to 10.240 ms. The conversion time was 163.84 ms, resulting in a total time sweep of 167.772 s. The signal gain was adjusted for the SL-ATP concentrations in the different experiments."}}, "note": "“Also recorded” adds a separate entry of the source.", "data": [{"smiles": "Cc1cc(C)c(-c2cc(NC(=O)CSc3cccc(NC(=O)c4cncc(Br)c4)c3)n(-c3ccccc3)n2)cc1C", "note": "[29-551, 5-bromo-N-(3-((2-oxo-2-((1-phenyl-3-(2,4,5-trimethylphenyl)-1H-pyrazol-5-yl)amino)ethyl)thio)phenyl)nicotinamide]", "values": [{"measurement": "Calcein accumulation in DU145TXR (in words)", "setting": "[1]", "value": "equivalent to 29 in efficacy"}, {"measurement": "Effect on stimulated ATPase", "setting": "[2]; in the presence of verapamil, listed as 551", "value": "inhibited activity similar to parental compound 29; also recorded: inhibited verapamil-stimulated ATPase activity"}, {"measurement": "Effect on stimulated ATPase", "setting": "[2]; in the presence of verapamil, listed as SMU29-551", "value": "inhibitor"}, {"measurement": "Stimulated ATPase", "setting": "[2]; in the presence of verapamil, ± standard deviation", "value": "62 ± 5 % of DMSO"}, {"measurement": "Effect on basal ATPase", "setting": "[2]; no added transport substrate, listed as 551", "value": "stimulated basal ATPase activity"}, {"measurement": "Effect on basal ATPase", "setting": "[2]; no added transport substrate, listed as SMU29-551", "value": "stimulator"}, {"measurement": "Basal ATPase", "setting": "[2]; no added transport substrate, ± standard deviation", "value": "150 ± 6 % of DMSO"}, {"measurement": "Effect on SL-ANP binding", "setting": "[3]", "value": "no"}, {"measurement": "Maximum ATP binding", "setting": "[3]; in the presence of the compound, ± standard deviation", "value": "1.7 ± 0.1", "unit": "mol SL-ANP bound/mol P-gp"}]}]}
